Results published in PMC9024597, “The Biological Fate of a Novel Anticancer Drug Candidate TNBG-5602: Metabolic Profile, Interaction with CYP450, and Pharmacokinetics in Rats” (Molecules, 2022).

What was measured:
CYP2D6 = target: T1, CYP2D6 (Homo sapiens, UniProt P10635); experiment: Metabolite formation on incubation with recombinant CYP; format: in vitro ADME; details: TNBG-5602 5 μg mL^−1, recombinant CYP 0.025 μM, 37 °C, 60 min
T1 construct: purchased IPHASE
Experimental: (§1) An Exion LC^TM AC UPLC system (AB Sciex, Framingham, MA, USA) coupled with an […] Q-TOF tandem mass spectrometer was used for qualitative analysis in this study. Chromatographic separation was carried out on an ACQUITY UPLC HSS T3 column (2.1 × 75 mm, 1.8 μm, Waters, Wexford, Ireland). […] The column temperature was set to 35 °C. The injection volume was 5 μL. A full scan was performed over m/z 100-1000 for precursor ions in positive mode with a spray voltage of 5.5 kV, collision energy (CE) of 35 V, CE spread of 15 V, and accumulation time of 0.05 s. The Q-TOF scan for product ions was performed over m/z 100-1200 with CE 10 V and an accumulation time of 0.1 s. For the structural identification of metabolites, the UPLC-Q-TOF-MS/MS data were acquired and processed via SCIEX OS (Version 1.7, AB Sciex, Redwood City, CA, USA). The raw data files were imported into SCIEX OS 2.1 to search for and identify the metabolites of TNBG-5602. Identification of the chemical structure included two steps. The first step was automatic prediction, while the second step was manual validation. In Step 1, the candidate metabolites were predicted by the software based on the typical metabolic reactions of the templates. In Step 2, an ion chromatogram was extracted to screen candidate metabolites with mass tolerance within 5 ppm, using blank samples for the subtraction of the background. Then, the MS/MS fragment ions were extracted for the structural confirmation of candidate metabolites. The stock solution of TNBG-5602 ([…]) was prepared using 0.1% aqueous formic acid. Then, the stock solution was diluted with PBS buffer to make the working solution of TNBG-5602 (1 mg mL^-1). The working solution of TNBG-5602 was incubated with CYP2D6, CYP3A4, CYP2C9, and CYP4V2 recombinant cytochrome enzymes, respectively. The total incubation volume for each reaction was 200 μL, containing TNBG-5602 (final concentration: 5 μg mL^-1), cytochrome P450s (final concentration: 0.025 μM), 3.3 mM MgCl2, 1.3 mM NADPH, 3.3 mM glucose-6-phosphate, 0.4 U mL^-1 glucose-6-phosphate dehydrogenase, and 0.05 mM sodium citrate. The cytochrome P450s were thawed on an ice bath and pre-incubated at 37 °C for 5 min. The mixtures were pre-incubated at 37 °C for 5 min before adding NADPH to initiate the reaction. NADPH was pre-incubated at 37 °C for 5 min and then added into the incubation system to initiate the reaction. The incubation periods were 60 min, and the reactions were quenched by adding 200 μL of iced acetonitrile. The samples were centrifuged (12,000× g rpm, 4 °C) for 10 min, and the supernatant was analyzed via the qualitative LC-MS/MS method. Blank samples in the absence of TNBG-5602 were incubated and followed by the same treatment.

CYP2C9 = target: T2, CYP2C9 (Homo sapiens, UniProt P11712); experiment: as above; format: in vitro ADME; details: TNBG-5602 5 μg mL^−1, recombinant CYP 0.025 μM, 37 °C, 60 min
T2 construct: purchased IPHASE
Experimental: as §1

CYP4V2 = target: T3, CYP4V2 (Homo sapiens, UniProt Q6ZWL3); experiment: as above; format: in vitro ADME; details: TNBG-5602 5 μg mL^−1, recombinant CYP 0.025 μM, 37 °C, 60 min
T3 construct: purchased Abnova P01
T3 sequence (Q6ZWL3 1-525): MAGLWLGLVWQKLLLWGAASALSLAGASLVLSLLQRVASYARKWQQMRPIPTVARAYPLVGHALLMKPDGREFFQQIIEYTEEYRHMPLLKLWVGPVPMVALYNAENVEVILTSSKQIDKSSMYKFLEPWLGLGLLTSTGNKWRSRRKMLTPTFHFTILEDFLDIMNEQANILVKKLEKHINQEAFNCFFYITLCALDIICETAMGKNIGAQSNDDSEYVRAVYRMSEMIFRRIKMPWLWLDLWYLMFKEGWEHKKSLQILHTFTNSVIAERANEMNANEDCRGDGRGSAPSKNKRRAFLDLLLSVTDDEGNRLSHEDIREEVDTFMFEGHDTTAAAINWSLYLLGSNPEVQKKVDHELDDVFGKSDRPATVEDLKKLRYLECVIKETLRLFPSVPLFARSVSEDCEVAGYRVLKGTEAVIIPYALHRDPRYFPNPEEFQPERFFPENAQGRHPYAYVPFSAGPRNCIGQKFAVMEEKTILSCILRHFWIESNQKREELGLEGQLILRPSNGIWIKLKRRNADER
Experimental: as §1

CYP3A4 = target: T4, CYP3A4 (Homo sapiens, UniProt P08684); experiment: as above; format: in vitro ADME; details: TNBG-5602 5 μg mL^−1, recombinant CYP 0.025 μM, 37 °C, 60 min
T4 construct: purchased IPHASE
Experimental: as §1

[1] = In vivo metabolites in rat urine and feces by UPLC-Q-TOF-MS/MS; details: rats; for metabolite detected in feces: TNBG-5602 i.v. 4.8 mg kg^−1, feces 0-24 h
Experimental: An Exion LC^TM AC UPLC system (AB Sciex, Framingham, MA, USA) coupled with an […] Q-TOF tandem mass spectrometer was used for qualitative analysis in this study. Chromatographic separation was carried out on an ACQUITY UPLC HSS T3 column (2.1 × 75 mm, 1.8 μm, Waters, Wexford, Ireland). […] The column temperature was set to 35 °C. The injection volume was 5 μL. A full scan was performed over m/z 100-1000 for precursor ions in positive mode with a spray voltage of 5.5 kV, collision energy (CE) of 35 V, CE spread of 15 V, and accumulation time of 0.05 s. The Q-TOF scan for product ions was performed over m/z 100-1200 with CE 10 V and an accumulation time of 0.1 s. For the structural identification of metabolites, the UPLC-Q-TOF-MS/MS data were acquired and processed via SCIEX OS (Version 1.7, AB Sciex, Redwood City, CA, USA). The raw data files were imported into SCIEX OS 2.1 to search for and identify the metabolites of TNBG-5602. Identification of the chemical structure included two steps. The first step was automatic prediction, while the second step was manual validation. In Step 1, the candidate metabolites were predicted by the software based on the typical metabolic reactions of the templates. In Step 2, an ion chromatogram was extracted to screen candidate metabolites with mass tolerance within 5 ppm, using blank samples for the subtraction of the background. Then, the MS/MS fragment ions were extracted for the structural confirmation of candidate metabolites. […] The urine and feces samples were collected before administration (0 h) and at 8, 12, and 24 h after intravenous injection. The urine samples were vortex mixed with acetonitrile at a ratio of 1:3 (v/v) for 15 min. The mixture was then centrifuged at 15,000 rpm for 10 min, and the supernatant was dried using a gentle flow of nitrogen. The residue was dissolved in acetonitrile and vortex mixed again. The supernatant was dried again and re-dissolved in 0.1% aqueous formic acid: acetonitrile (50:50, v/v). The treated sample solutions were stored at -20 °C until analysis. A 5 μL aliquot of the thawed sample solution was injected into the UPLC-Q-TOF-MS/MS device to analyze the metabolites. The feces samples were homogenized with pure water at a ratio of 1:1 (w/w). The homogenate was vortex mixed with acetonitrile at a ratio of 1:3 (w/v) for 15 min. The mixture was then centrifuged at 15,000 rpm for 10 min, and the supernatant was dried using a gentle flow of nitrogen. The residue was dissolved with acetonitrile and vortex mixed again. The supernatant was dried again and re-dissolved in 0.1% aqueous formic acid: acetonitrile (50:50, v/v). The treated sample solutions were stored at -20 °C until analysis. A 5-μL aliquot of the thawed sample solution was injected into the UPLC-Q-TOF-MS/MS device to analyze the metabolites.

T2 sequence (P11712 whole entry): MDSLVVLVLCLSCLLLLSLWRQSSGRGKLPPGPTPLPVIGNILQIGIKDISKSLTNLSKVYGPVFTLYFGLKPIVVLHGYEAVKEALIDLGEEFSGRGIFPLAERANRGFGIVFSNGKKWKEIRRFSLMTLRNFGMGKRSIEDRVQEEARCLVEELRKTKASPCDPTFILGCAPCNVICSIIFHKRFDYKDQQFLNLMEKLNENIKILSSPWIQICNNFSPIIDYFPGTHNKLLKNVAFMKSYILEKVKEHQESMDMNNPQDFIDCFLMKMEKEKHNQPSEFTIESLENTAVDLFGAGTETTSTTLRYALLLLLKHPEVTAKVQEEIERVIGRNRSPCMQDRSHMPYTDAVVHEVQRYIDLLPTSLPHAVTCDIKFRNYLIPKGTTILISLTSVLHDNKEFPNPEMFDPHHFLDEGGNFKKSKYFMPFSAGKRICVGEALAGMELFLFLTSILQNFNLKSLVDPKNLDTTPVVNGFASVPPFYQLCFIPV
T1 sequence (P10635 whole entry): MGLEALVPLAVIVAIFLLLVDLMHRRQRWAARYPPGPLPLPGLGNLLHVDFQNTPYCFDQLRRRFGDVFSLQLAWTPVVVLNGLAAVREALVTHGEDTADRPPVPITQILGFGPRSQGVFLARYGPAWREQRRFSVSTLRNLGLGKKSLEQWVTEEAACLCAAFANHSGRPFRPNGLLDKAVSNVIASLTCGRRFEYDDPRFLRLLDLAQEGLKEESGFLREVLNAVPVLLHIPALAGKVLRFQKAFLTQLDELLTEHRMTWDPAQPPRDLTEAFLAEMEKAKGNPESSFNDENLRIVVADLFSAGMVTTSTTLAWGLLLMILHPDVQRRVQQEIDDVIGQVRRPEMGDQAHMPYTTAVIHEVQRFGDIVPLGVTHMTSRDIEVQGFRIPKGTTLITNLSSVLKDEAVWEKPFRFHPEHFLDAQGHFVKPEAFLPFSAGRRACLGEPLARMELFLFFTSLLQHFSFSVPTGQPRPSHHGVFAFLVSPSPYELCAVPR
T4 sequence (P08684 whole entry): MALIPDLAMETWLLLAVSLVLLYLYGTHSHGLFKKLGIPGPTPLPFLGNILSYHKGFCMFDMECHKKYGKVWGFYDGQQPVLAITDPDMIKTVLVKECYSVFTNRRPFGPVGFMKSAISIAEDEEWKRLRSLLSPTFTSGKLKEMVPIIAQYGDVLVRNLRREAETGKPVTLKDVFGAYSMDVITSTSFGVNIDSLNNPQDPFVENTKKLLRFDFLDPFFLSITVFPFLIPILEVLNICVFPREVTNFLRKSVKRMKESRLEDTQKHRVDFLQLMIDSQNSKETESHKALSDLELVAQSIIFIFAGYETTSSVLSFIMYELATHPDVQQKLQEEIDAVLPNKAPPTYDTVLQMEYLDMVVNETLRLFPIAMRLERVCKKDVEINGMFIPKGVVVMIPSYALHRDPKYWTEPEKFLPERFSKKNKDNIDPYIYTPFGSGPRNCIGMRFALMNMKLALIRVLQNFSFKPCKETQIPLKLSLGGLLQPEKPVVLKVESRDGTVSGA

metabolite detected after incubation with CYP2D6 (CYP2D6) | metabolite detected after incubation with CYP2C9 (CYP2C9) | metabolite detected after incubation with CYP4V2 (CYP4V2) | metabolite detected after incubation with CYP3A4 (CYP3A4) | rank of metabolite in the feces (major/minor) ([1]; TNBG-5602 i.v.) | rank of metabolite in the urine ([1]; TNBG-5602 i.v.) | metabolite detected in feces [1] | metabolite detected in urine ([1]; TNBG-5602 i.v. 4.8 mg kg^−1, urine 0-24 h) | Structure (SMILES)
observed and × | found and × | found and × | obtained and × | major | main | present and × | present and × | CNCCN1CC2c3ccccc3CCN2c2nc3ccccc3nc21 (centres unmarked) [M5]
 |  |  |  | minor |  | × |  | CN1CCN2CC3c4ccccc4CCN3C3=Nc4ccccc4NC312 (centres unmarked) [M6]
 |  |  |  | minor |  | × |  | c1ccc2c(c1)CCN1c3nc4ccccc4nc3N(CCN3COC3)CC21 (centres unmarked) [M7]
 |  |  |  | minor |  | × |  | CN(C=O)CCN1CC2c3ccccc3CCN2c2nc3ccccc3nc21 (centres unmarked) [M8]
